How the values were obtained:
[1] = target: recombinant G547 IRE1α KEN domain (Homo sapiens, UniProt O75460); test: IRE1α S724 autophosphorylation assay (DELFIA); type: biochemical; conditions: read-out: IRE1a autophosphorylation inhibition (DELFIA IC50 nM)
[2] = target: recombinant dephosphorylated G547 IRE1α KEN domain (Homo sapiens, UniProt O75460); test: IRE1α ATP-site binding assay (LanthaScreen tracer displacement); conditions: read-out: IRE1a ATP site binding (LanthaScreen IC50 nM)
[3] = test system: IRE1α-dependent splicing of XBP1u-luciferase mRNA reporter in HEK293 cells; test: XBP1 luciferase fusion mRNA splicing reporter in HEK293 cells; type: cell-based, human; conditions: HEK293TN; read-out: XBP1 reporter cleavage in HEK293TN IC50
[4] = test system: HEK293 cells stably expressing an XBP1u-luciferase mRNA reporter; conditions: read-out: HEK293 cytotoxicity (CellTitreBlue) IC50

Chain of recombinant dephosphorylated G547 IRE1α KEN domain (O75460 547-977): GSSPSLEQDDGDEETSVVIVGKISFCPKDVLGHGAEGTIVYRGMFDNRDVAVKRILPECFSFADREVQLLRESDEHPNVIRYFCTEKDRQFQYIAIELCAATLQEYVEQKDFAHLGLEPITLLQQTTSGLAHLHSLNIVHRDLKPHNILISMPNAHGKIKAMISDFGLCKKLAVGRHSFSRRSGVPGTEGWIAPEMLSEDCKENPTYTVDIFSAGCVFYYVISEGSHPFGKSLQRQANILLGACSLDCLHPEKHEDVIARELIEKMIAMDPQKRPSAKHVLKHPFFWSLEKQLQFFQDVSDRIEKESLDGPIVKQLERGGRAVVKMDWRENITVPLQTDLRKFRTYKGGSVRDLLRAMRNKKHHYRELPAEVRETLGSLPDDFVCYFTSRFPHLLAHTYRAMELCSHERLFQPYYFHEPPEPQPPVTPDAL
Chain of recombinant G547 IRE1α KEN domain (O75460 547-977): as above

| SMILES | IC50 [1] [nM] | IC50 [2] [nM] | IC50 [3] [µM] | IC50 [4] [µM] |
| --- | --- | --- | --- | --- |
| Fc1cc(F)cc(Cn2cc(-c3ccnc4[nH]cnc34)cn2)c1 [Control A, 7-(1-(3,5-difluorobenzyl)-1H-pyrazol-4-yl)-3H-imidazo[4,5-b]pyridine, reference compound] | 3110 | 3280 | 6.2 | > 50 |
| CC(C)Nc1cc(Cl)nn2c(-c3ccc4[nH]ncc4c3)cnc12 [compound 33] | 276 | 736 |  |  |

From PMC6437697 (Journal of Medicinal Chemistry, 2019)
